Assay results taken from ChEMBL document CHEMBL5154747, “Discovery of new carbonic anhydrase IX inhibitors as anticancer agents by toning the hydrophobic and hydrophilic rims of the active site to encounter the dual-tail approach” (Eur J Med Chem, 2022).

Columns and labels:
[1] = tested on: KM12; assay: Anticancer activity against human KM12 cells assessed as cell growth inhibition at 10 uM incubated for 48 hrs by SRB assay relative to control; assay type: functional; details: read-out: GI
[2] = tested on: SNB-19; assay: Anticancer activity against human SNB-19 cells assessed as cell growth inhibition at 10 uM incubated for 48 hrs by SRB assay relative to control; assay type: functional; details: read-out: GI
[3] = tested on: UACC-62; assay: Anticancer activity against human UACC-62 cells assessed as cell growth inhibition at 10 uM incubated for 48 hrs by SRB assay relative to control; assay type: functional; details: read-out: GI
[4] = tested on: Malme-3M; assay: Anticancer activity against human Malme-3M cells assessed as cell growth inhibition at 10 uM incubated for 48 hrs by SRB assay relative to control; assay type: functional; details: read-out: GI
[5] = tested on: SK-MEL-5; assay: Anticancer activity against human SK-MEL-5 cells assessed as cell growth inhibition at 10 uM incubated for 48 hrs by SRB assay relative to control; assay type: functional; details: read-out: GI
[6] = tested on: CCRF-CEM; assay: Anticancer activity against human CCRF-CEM cells assessed as cell growth inhibition at 10 uM incubated for 48 hrs by SRB assay relative to control; assay type: functional; details: read-out: GI
[7] = tested on: MCF7; assay: Anticancer activity against human MCF7 cells assessed as cell growth inhibition at 10 uM incubated for 48 hrs by SRB assay relative to control; assay type: functional; details: read-out: GI
[8] = tested on: NCI-H460; assay: Anticancer activity against human NCI-H460 cells assessed as cell growth inhibition at 10 uM incubated for 48 hrs by SRB assay relative to control; assay type: functional; details: read-out: GI
[9] = tested on: NCI-H322M; assay: Anticancer activity against human NCI-H322M cells assessed as cell growth inhibition at 10 uM incubated for 48 hrs by SRB assay relative to control; assay type: functional; details: read-out: GI
[10] = tested on: SK-OV-3; assay: Anticancer activity against human SK-OV-3 cells assessed as cell growth inhibition at 10 uM incubated for 48 hrs by SRB assay relative to control; assay type: functional; details: read-out: GI
[11] = tested on: HT-29; assay: Anticancer activity against human HT-29 cells assessed as cell growth inhibition at 10 uM incubated for 48 hrs by SRB assay relative to control; assay type: functional; details: read-out: GI
[12] = tested on: CAKI-1; assay: Anticancer activity against human CAKI-1 cells assessed as cell growth inhibition at 10 uM incubated for 48 hrs by SRB assay relative to control; assay type: functional; details: read-out: GI
[13] = tested on: PC-3; assay: Anticancer activity against human PC-3 cells assessed as cell growth inhibition at 10 uM incubated for 48 hrs by SRB assay relative to control; assay type: functional; details: read-out: GI
[14] = tested on: SF-539; assay: Anticancer activity against human SF-539 cells assessed as cell growth inhibition at 10 uM incubated for 48 hrs by SRB assay relative to control; assay type: functional; details: read-out: GI
[15] = tested on: A549; assay: Anticancer activity against human A549 cells assessed as cell growth inhibition at 10 uM incubated for 48 hrs by SRB assay relative to control; assay type: functional; details: read-out: GI
[16] = tested on: COLO 205; assay: Anticancer activity against human COLO 205 cells assessed as cell growth inhibition at 10 uM incubated for 48 hrs by SRB assay relative to control; assay type: functional; details: read-out: GI
[17] = tested on: Hs-578T; assay: Anticancer activity against human Hs-578T cells assessed as cell growth inhibition at 10 uM incubated for 48 hrs by SRB assay relative to control; assay type: functional; details: read-out: GI
[18] = tested on: EKVX; assay: Anticancer activity against human EKVX cells assessed as cell growth inhibition at 10 uM incubated for 48 hrs by SRB assay relative to control; assay type: functional; details: read-out: GI
[19] = tested on: OVCAR-8; assay: Anticancer activity against human OVCAR-8 cells assessed as cell growth inhibition at 10 uM incubated for 48 hrs by SRB assay relative to control; assay type: functional; details: read-out: GI
[20] = tested on: SK-MEL-2; assay: Anticancer activity against human SK-MEL-2 cells assessed as cell growth inhibition at 10 uM incubated for 48 hrs by SRB assay relative to control; assay type: functional; details: read-out: GI
[21] = tested on: HCC 2998; assay: Anticancer activity against human HCC 2998 cells assessed as cell growth inhibition at 10 uM incubated for 48 hrs by SRB assay relative to control; assay type: functional; details: read-out: GI
[22] = tested on: UO-31; assay: Anticancer activity against human UO-31 cells assessed as cell growth inhibition at 10 uM incubated for 48 hrs by SRB assay relative to control; assay type: functional; details: read-out: GI
[23] = tested on: UACC-257; assay: Anticancer activity against human UACC-257 cells assessed as cell growth inhibition at 10 uM incubated for 48 hrs by SRB assay relative to control; assay type: functional; details: read-out: GI
[24] = molecular target: Carbonic anhydrase 9 (Homo sapiens, UniProt Q16790); assay: Inhibition of recombinant human CA 9 preincubated for 15 mins by phenol red dye based stopped flow CO2 hydration assay
[25] = tested on: SW-620; assay: Anticancer activity against human SW-620 cells assessed as cell growth inhibition at 10 uM incubated for 48 hrs by SRB assay relative to control; assay type: functional; details: read-out: GI
[26] = tested on: T47D; assay: Anticancer activity against human T47D cells assessed as cell growth inhibition at 10 uM incubated for 48 hrs by SRB assay relative to control; assay type: functional; details: read-out: GI
[27] = tested on: HOP-92; assay: Anticancer activity against human HOP-92 cells assessed as cell growth inhibition at 10 uM incubated for 48 hrs by SRB assay relative to control; assay type: functional; details: read-out: GI
[28] = tested on: A498; assay: Anticancer activity against human A498 cells assessed as cell growth inhibition at 10 uM incubated for 48 hrs by SRB assay relative to control; assay type: functional; details: read-out: GI
[29] = tested on: HOP-62; assay: Anticancer activity against human HOP-62 cells assessed as cell growth inhibition at 10 uM incubated for 48 hrs by SRB assay relative to control; assay type: functional; details: read-out: GI
[30] = tested on: NCI-H23; assay: Anticancer activity against human NCI-H23 cells assessed as cell growth inhibition at 10 uM incubated for 48 hrs by SRB assay relative to control; assay type: functional; details: read-out: GI
[31] = tested on: SF-295; assay: Anticancer activity against human SF-295 cells assessed as cell growth inhibition at 10 uM incubated for 48 hrs by SRB assay relative to control; assay type: functional; details: read-out: GI
[32] = tested on: K562; assay: Anticancer activity against human K562 cells assessed as cell growth inhibition at 10 uM incubated for 48 hrs by SRB assay relative to control; assay type: functional; details: read-out: GI
[33] = tested on: RPMI-8226; assay: Anticancer activity against human RPMI-8226 cells assessed as cell growth inhibition at 10 uM incubated for 48 hrs by SRB assay relative to control; assay type: functional; details: read-out: GI
[34] = tested on: MDA-MB-435; assay: Anticancer activity against human MDA-MB-435 cells assessed as cell growth inhibition at 10 uM incubated for 48 hrs by SRB assay relative to control; assay type: functional; details: read-out: GI
[35] = tested on: U-251; assay: Anticancer activity against human U-251 cells assessed as cell growth inhibition at 10 uM incubated for 48 hrs by SRB assay relative to control; assay type: functional; details: read-out: GI
[36] = tested on: MDA-MB-468; assay: Anticancer activity against human MDA-MB-468 cells assessed as cell growth inhibition at 10 uM incubated for 48 hrs by SRB assay relative to control; assay type: functional; details: read-out: GI
[37] = tested on: NCI-H226; assay: Anticancer activity against human NCI-H226 cells assessed as cell growth inhibition at 10 uM incubated for 48 hrs by SRB assay relative to control; assay type: functional; details: read-out: GI
[38] = tested on: OVCAR-3; assay: Anticancer activity against human OVCAR-3 cells assessed as cell growth inhibition at 10 uM incubated for 48 hrs by SRB assay relative to control; assay type: functional; details: read-out: GI
[39] = tested on: NCI-H522; assay: Anticancer activity against human NCI-H522 cells assessed as cell growth inhibition at 10 uM incubated for 48 hrs by SRB assay relative to control; assay type: functional; details: read-out: GI
[40] = tested on: DU-145; assay: Anticancer activity against human DU-145 cells assessed as cell growth inhibition at 10 uM incubated for 48 hrs by SRB assay relative to control; assay type: functional; details: read-out: GI

## NS(=O)(=O)c1ccc(Nc2nc(N/N=C/c3c[nH]c4ccccc34)nc(Nc3ccccc3)n2)cc1
[1]
  inhibition of growth at 10 µM: 72%
[2]
  inhibition of growth at 10 µM: 43%
[3]
  inhibition of growth at 10 µM: 61%
[4]
  inhibition of growth at 10 µM: 53%
[5]
  inhibition of growth at 10 µM: 60%
[6]
  inhibition of growth at 10 µM: 87%
[7]
  inhibition of growth at 10 µM: 81%
[8]
  inhibition of growth at 10 µM: 58%
[9]
  inhibition of growth at 10 µM: 45%
[10]
  inhibition of growth at 10 µM: < 10%
[11]
  inhibition of growth at 10 µM: 68%
[12]
  inhibition of growth at 10 µM: 46%
[13]
  inhibition of growth at 10 µM: 73%
[14]
  inhibition of growth at 10 µM: 52%
[15]
  inhibition of growth at 10 µM: 21%
[16]
  inhibition of growth at 10 µM: 59%
[17]
  inhibition of growth at 10 µM: 57%
[18]
  inhibition of growth at 10 µM: 32%
[19]
  inhibition of growth at 10 µM: 62%
[20]
  inhibition of growth at 10 µM: 32%
[21]
  inhibition of growth at 10 µM: 47%
[22]
  inhibition of growth at 10 µM: 50%
[23]
  inhibition of growth at 10 µM: 36%
[24]
  Ki: 25.8 nM
[25]
  inhibition of growth at 10 µM: 50%
[26]
  inhibition of growth at 10 µM: 64%
[27]
  inhibition of growth at 10 µM: 38%
[28]
  inhibition of growth at 10 µM: 48%
[29]
  inhibition of growth at 10 µM: 36%
[30]
  inhibition of growth at 10 µM: 52%
[31]
  inhibition of growth at 10 µM: 68%
[32]
  inhibition of growth at 10 µM: 77%
[33]
  inhibition of growth at 10 µM: 105%
[34]
  inhibition of growth at 10 µM: 68%
[35]
  inhibition of growth at 10 µM: 71%
[36]
  inhibition of growth at 10 µM: 47%
[37]
  inhibition of growth at 10 µM: 58%
[38]
  inhibition of growth at 10 µM: 73%
[39]
  inhibition of growth at 10 µM: 68%
[40]
  inhibition of growth at 10 µM: 56%
